This note sets out measurements from BindingDB's records for patent US11111252 (Duquesne University of The Holy Spirit, 2021).

This assay concerns the target T1, Dihydrofolate reductase (Pneumocystis jirovecii, UniProt Q9UUP5).
T1 sequence (Q9UUP5 whole entry): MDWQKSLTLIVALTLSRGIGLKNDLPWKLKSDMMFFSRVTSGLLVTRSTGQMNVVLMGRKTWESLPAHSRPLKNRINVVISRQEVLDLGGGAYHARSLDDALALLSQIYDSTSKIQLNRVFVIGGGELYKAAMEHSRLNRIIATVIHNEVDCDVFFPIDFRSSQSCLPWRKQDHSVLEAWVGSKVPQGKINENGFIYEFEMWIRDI
The experiment in a line: Kinase Inhibition Assay.

Take `COc1ccc(Sc2sc3nc(N)nc(N)c3c2C)cc1OC` [US11111252, Compound 1]: it took 260 nM to reach half-maximal inhibition (IC50).

`COc1ccc(Sc2c(C)c3c(N)nc(N)nc3n2C)cc1OC` [US11111252, Compound 9] had an IC50 of 234 nM.

Broadly, the IC50 is the concentration at which inhibition is half-maximal. High values mean weaker potency, low ones greater potency.
